The numbers were not newly measured in US20090252807A1, “Nanoparticulate and Controlled Release Compositions Comprising Prostaglandin Derivatives” (ELAN PHARMA INTERNATIONAL LIMITED, priority 2005, published 2009), which cites them from elsewhere.

One data set has as its system blood pressure. Conditions: 100 and 300 μg/kg orally in rats.
For another data set, the system named is coronary blood flow. Conditions: intra-coronary injection 100 ng/kg or intravenous injection 3 μg/kg, anesthetized dogs.
For a further data set, the system named is platelet adhesiveness. To be noted: in vitro.

Like-named read-outs stand apart in the source and are kept apart here.

Turning to “(E)-7-{(1R,2R,3R)-3-hydroxy-2-[(3S,5S)-E-3hydroxy-5-methyl-1-nonenyl]-5-oxocyclopentyl}-2-heptonoic acid α-cyclodextrin inclusion compound [Limaprost]”, the solubility in diethylether result is recorded as “practically insoluble”, the solubility in ethanol entry is “very slightly soluble”, the “solubility in ethyl acetate” value is recorded as “practically insoluble” and the solubility in water entry was “freely soluble”. In addition, the hypotensive effects entry in the data set with blood pressure is listed as “Significant hypotensive effects”. Moreover, the solubility in water entry (listed as limaprost) was “practically insoluble”. In addition, the “increase of coronary blood flow” value with coronary blood flow is on record as 60-80%. The “potency relative to PGE1 as an inhibitor of platelet adhesiveness” value in the data set with platelet adhesiveness is listed as 10-1,000 times.
